Measurements taken from patent US20200405868A1, “GEL-FORMING POLYPEPTIDES” (priority 2018, published 2020).
Where no end group is shown, it is not given here. The star is where a group is joined. Palmitoyl = CCCCCCCCCCCCCCCC(=O)*

Test: Compound gel-forming ability in water (visual inspection, tube tapping assay, tilted tube assay);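 further: peptides mixed with de-ionized water at about 22-25 °C, judged after 20 min by eye plus tube tapping (10 taps, moves counted) and 90° tilt mobility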
Type: physicochemical
Conditions: for gel formation in aqueous solution, 6% / propensity to form gels, wild-type counterparts, 6% / propensity to form gels, chimeric or mutated polypeptides, 6%: 6% w/w; for gel formation in aqueous solution, 11% / propensity to form gels, wild-type counterparts, 11% / propensity to form gels, chimeric or mutated polypeptides, 11%: 11% w/w; for gel formation at 3% w/w: 3% w/w in water; for gel formation at 6% w/w: 6% w/w in water; for gel formation at 11% w/w: 11% w/w in water; for Physical property at 11% w/w: 11% w/w in aqueous solution, room temperature; for gel formation in aqueous solution, 20% / propensity to form gels, wild-type counterparts, 20% / propensity to form gels, chimeric or mutated polypeptides, 20%: 20% w/w; for gel formation at 20% w/w: 20% w/w in water; for gel formation at the selected concentration: selected concentration (i.e., at 30%, 20%, 11%, or 6% w/w)

Substance | gel formation in aqueous solution, 6% (Table 3) | gel formation in aqueous solution, 11% (Table 3) | gel formation at 11% w/w | gel formation in aqueous solution, 20% (Table 3) | propensity to form gels, chimeric or mutated polypeptides, 11% (Table 5) | also measured
FKFEFKFE-miniPEG-RPKPQQFFGLM-NH2 [SEQ ID NO:284] | AS/IS (AS/IS for aqueous solution or insoluble) | AS/IS (AS/IS for aqueous solution or insoluble) |  |  |  | 
FTLSLDVPTNIMNLLFNIAKAKNLRAQAAANAHLMAQI-NH2 [SEQ ID NO:10, reference compound] |  | SS (SS for semisolid gel) | semisolid gel | SS (SS for semisolid gel) |  | gel formation at 3% w/w: liquid gel; gel formation at 6% w/w: semisolid gel; Physical property at 11% w/w (Table 1): SS (SS for semisolid gel); propensity to form gels, wild-type counterparts, 6% (Table 5): SS (An ability to form semisolid gel is represented by an SS); propensity to form gels, wild-type counterparts, 11% (Table 5): SS (An ability to form semisolid gel is represented by an SS)
GRKKRRQRRRPQ [SEQ ID NO:36, reference compound] |  | AS/IS (AS/IS for aqueous solution or insoluble) | cannot form gel | AS/IS (AS/IS for aqueous solution or insoluble) |  | gel formation at 20% w/w: cannot form gel; Physical property at 11% w/w (Table 1): AS/IS; propensity to form gels, wild-type counterparts, 11% (Table 5): AS/IS; propensity to form gels, wild-type counterparts, 20% (Table 5): AS/IS; gel formation at the selected concentration: only form aqueous solution or are insoluble
HAEGTFTSDVSSYLEGQAAK(YSHPSS-Pal)EFIAWLVRGRG [SEQ ID NO:269] |  | SS (SS for semisolid gel) |  | SS (SS for semisolid gel) | SS (An ability to form semisolid gel is represented by an SS) | propensity to form gels, chimeric or mutated polypeptides, 20% (Table 5): SS (An ability to form semisolid gel is represented by an SS)
HAEGTFTSDVSSYLEGQAAKEFIAWLVKGR-NH2 [SEQ ID NO:14, reference compound] | AS/IS (AS/IS for aqueous solution or insoluble) |  | liquid gel |  |  | propensity to form gels, wild-type counterparts, 6% (Table 5): AS/IS
HAEGTFTSDVSSYLEGQAAREFIAWLVK(YSHPSS-Pal)GRG [SEQ ID NO:270] |  | SS (SS for semisolid gel) |  | SS (SS for semisolid gel) | SS (An ability to form semisolid gel is represented by an SS) | propensity to form gels, chimeric or mutated polypeptides, 20% (Table 5): SS (An ability to form semisolid gel is represented by an SS)
HGDGSFSDEMNTILDNLAARDFINWLIQTKITD-OH [SEQ ID NO:12, reference compound] | AS/IS (AS/IS for aqueous solution or insoluble) |  | liquid gel |  |  | propensity to form gels, wild-type counterparts, 6% (Table 5): AS/IS
HSDAVFTDNYTRLRKQ-Nle-AVKKYLNSILN-(Pal-K)-SY-NH2 [SEQ ID NO:266] |  | SS (SS for semisolid gel) | semisolid gel |  | SS (An ability to form semisolid gel is represented by an SS) | 
HSDAVFTDNYTRLRKQMAVKKYLNSILN [SEQ ID NO:67, reference compound] |  | AS/IS (AS/IS for aqueous solution or insoluble) | does not form gel | AS/IS (AS/IS for aqueous solution or insoluble) |  | gel formation at 20% w/w: does not form gel; propensity to form gels, wild-type counterparts, 11% (Table 5): AS/IS; propensity to form gels, wild-type counterparts, 20% (Table 5): AS/IS
IEGPTLRQWLAARA [SEQ ID NO:9, reference compound] |  |  |  |  |  | Physical property at 11% w/w (Table 1): SS (SS for semisolid gel)
IVLSLDVPIGLLQILLEQARARAAREQATTNARILARVGHC-NH2 [SEQ ID NO:31, reference compound] |  | AS/IS (AS/IS for aqueous solution or insoluble) | does not form gel | AS/IS (AS/IS for aqueous solution or insoluble) |  | gel formation at 20% w/w: does not form gel; Physical property at 11% w/w (Table 1): AS/IS; propensity to form gels, wild-type counterparts, 11% (Table 5): AS/IS; propensity to form gels, wild-type counterparts, 20% (Table 5): AS/IS; gel formation at the selected concentration: only form aqueous solution or are insoluble
KRPPGFS-(Dβal)-Ile-NH2 [SEQ ID NO:65, reference compound] | AS/IS (AS/IS for aqueous solution or insoluble) | AS/IS (AS/IS for aqueous solution or insoluble) | does not form a gel |  |  | gel formation at 6% w/w: does not form a gel; propensity to form gels, wild-type counterparts, 6% (Table 5): AS/IS; propensity to form gels, wild-type counterparts, 11% (Table 5): AS/IS
KTTKS-NH2 [SEQ ID NO:43, reference compound] |  |  |  |  |  | Physical property at 11% w/w (Table 1): AS/IS
PFRSVQ-NH2 [SEQ ID NO:37, reference compound] |  | AS/IS (AS/IS for aqueous solution or insoluble) | does not form gel |  |  | Physical property at 11% w/w (Table 1): AS/IS; propensity to form gels, wild-type counterparts, 11% (Table 5): AS/IS
PGTCEICAYAACTGC [SEQ ID NO:40, reference compound] |  |  |  |  |  | Physical property at 11% w/w (Table 1): AS/IS
Pal-HSDAAVDTSSEITTKDLKEKKEVVEEAEN-NH2 [SEQ ID NO:267] | SS (SS for semisolid gel) | SS (SS for semisolid gel) | semisolid gel |  | SS (An ability to form semisolid gel is represented by an SS) | propensity to form gels, chimeric or mutated polypeptides, 6% (Table 5): SS (An ability to form semisolid gel is represented by an SS)
Pal-HSY-(D-Ala)-GF(D-Leu)-NH2 [SEQ ID NO:213] |  |  |  |  |  | gel formation at 3% w/w: semisolid gels; gel formation in aqueous solution, 3% (Table 3, 3% w/w): SS (SS for semisolid gel)
Pal-HSY-(D-Met)-FHLMD-NH2 [SEQ ID NO:211] |  | SS (SS for semisolid gel) | semisolid gel |  |  | gel formation at 6% w/w: semisolid or liquid gel
Pal-HSY-(D-Phe)-QWAVGHL-(4-Cl)Phe-NH2 [SEQ ID NO:255] |  | SS (SS for semisolid gel) |  |  | SS (An ability to form semisolid gel is represented by an SS) | propensity to form gels, chimeric or mutated polypeptides, 3% (Table 5, 3% w/w): AS/IS
Pal-HSY-NH2 [SEQ ID NO:120] |  |  |  |  |  | Physical property at 11% w/w (Table 2): SS (SS for semisolid gel)
Pal-HSY-Nle-cyclo[Asp-His-D-Phe-Arg-Trp-Lys]-NH2 [SEQ ID NO:257] |  | SS (SS for semisolid gel) |  | SS (SS for semisolid gel) | SS (An ability to form semisolid gel is represented by an SS) | propensity to form gels, chimeric or mutated polypeptides, 20% (Table 5): SS (An ability to form semisolid gel is represented by an SS)
Pal-HSYAAVDTSSEITTKDLKEKKEVVEEAEN-NH2 [SEQ ID NO:240] | AS/IS (AS/IS for aqueous solution or insoluble) | SS (SS for semisolid gel) | semisolid gel |  | SS (An ability to form semisolid gel is represented by an SS) | propensity to form gels, chimeric or mutated polypeptides, 6% (Table 5): AS/IS
Pal-HSYADAIFTNSYRKVLGQLSARKLLQDIMSR-NH2 (Palmitoyl-HSYADAIFTNSYRKVLGQLSARKLLQDIMSR-NH2; SMILES CCCCCCCCCCCCCCCC(=O)N[C@@H](Cc1c[nH]cn1)C(=O)N[C@@H](CO)C(=O)N[C@@H](Cc1ccc(O)cc1)C(=O)N[C@@H](C)C(=O)N[C@@H](CC(=O)O)C(=O)N[C@@H](C)C(=O)N[C@H](C(=O)N[C@@H](Cc1ccccc1)C(=O)N[C@H](C(=O)N[C@@H](CC(N)=O)C(=O)N[C@@H](CO)C(=O)N[C@@H](Cc1ccc(O)cc1)C(=O)N[C@@H](CCCNC(=N)N)C(=O)N[C@@H](CCCCN)C(=O)N[C@H](C(=O)N[C@@H](CC(C)C)C(=O)NCC(=O)N[C@@H](CCC(N)=O)C(=O)N[C@@H](CC(C)C)C(=O)N[C@@H](CO)C(=O)N[C@@H](C)C(=O)N[C@@H](CCCNC(=N)N)C(=O)N[C@@H](CCCCN)C(=O)N[C@@H](CC(C)C)C(=O)N[C@@H](CC(C)C)C(=O)N[C@@H](CCC(N)=O)C(=O)N[C@@H](CC(=O)O)C(=O)N[C@H](C(=O)N[C@@H](CCSC)C(=O)N[C@@H](CO)C(=O)N[C@@H](CCCNC(=N)N)C(N)=O)[C@@H](C)CC)C(C)C)[C@@H](C)O)[C@@H](C)CC) [SEQ ID NO:237] | AS/IS (AS/IS for aqueous solution or insoluble) | AS/IS (AS/IS for aqueous solution or insoluble) |  | SS (SS for semisolid gel) | AS/IS | gel formation at 20% w/w: semisolid gel; propensity to form gels, chimeric or mutated polypeptides, 6% (Table 5): AS/IS; propensity to form gels, chimeric or mutated polypeptides, 20% (Table 5): SS (An ability to form semisolid gel is represented by an SS)
Pal-HSYEEMQRR-NH2 [SEQ ID NO:250] | AS/IS (AS/IS for aqueous solution or insoluble) | SS (SS for semisolid gel) | semisolid gel |  | SS (An ability to form semisolid gel is represented by an SS) | propensity to form gels, chimeric or mutated polypeptides, 6% (Table 5): AS/IS
Pal-HSYFFGLM-NH2 [SEQ ID NO:253] | AS/IS (AS/IS for aqueous solution or insoluble) | SS (SS for semisolid gel) |  |  | SS (An ability to form semisolid gel is represented by an SS) | propensity to form gels, chimeric or mutated polypeptides, 6% (Table 5): AS/IS
